In paper PMC2033785, “High-affinity binding sites for gastrin-releasing peptide on human colorectal cancer tissue but not uninvolved mucosa” (British Journal of Cancer, 1995):
No end group written: not given here.

What was measured:
[1] = test system: bombesin binding sites on human colorectal cancer tissue (GRP-preferring subtype); experiment: Radioligand displacement binding on human colorectal cancer membranes; conditions: for Radioligand displacement achieved over the concentration range: [125I]Tyr4-BBS; for Radioligand displacement achieved over the concentration range / Relative affinity for the binding site (GRP, BBS >> NMB): five binding site-positive tumours; for Relative affinity for the binding site (GRP, BBS >> NMB): displacement of [125I]Tyr4-bombesin
human colorectal cancers = test system: human colorectal cancers; set-up: method as in Radulovic et al., 1992; conditions: ref Radulovic et al., 1992; cited from earlier work
matched mucosa = test system: matched mucosa; set-up: method as in Radulovic et al., 1992; conditions: ref Radulovic et al., 1992; cited from earlier work
[2] = test system: mouse colon cancer cell line MC26; set-up: method as in Narayan et al., 1990; conditions: [3H]thymidine incorporation and MTT assays; ref Narayan et al., 1990; cited from earlier work
[3] = competitor 1 x 10-11 to 1 x 10^-6 M

Substance | Radioligand displacement achieved over the concentration range [1, 3] | Relative affinity for the binding site (GRP, BBS >> NMB) [1] | Percentage of human colorectal cancers expressing bombesin binding sites (human colorectal cancers) [%] | Matched mucosa binding site positive (matched mucosa) | Effect on growth [2] | IC50 for displacement of [125I]Tyr4-BBS ([1]; membrane preparations, approximately 200 pM radioligand, competitor 1 x 10-11 to 1 x 10^-6 M, six tubes per point, mean (± s.e.m.) of the five binding site-positive cancers) | 50% displacement of specific binding: number of tumours in which achieved ([1]; of the five binding site-positive tumours, competitor 1 x 10-11 to 1 x 10^-6 M)
gastrin-releasing peptide (VPLPAGGGTVLTKMYPRGNHWAVGHLM; ends and bridges not checked; UniProt P07492 24-50, looked up) [GRP, mammalian bombesin-like peptide (Bachem)] | Full radioligand displacement was achieved | GRP, BBS >> NMB |  |  |  |  | 
bombesin [BBS] | Full radioligand displacement was achieved | GRP, BBS >> NMB | 40 | none of the matched mucosa were binding site positive | stimulated growth |  | 
neuromedin B [NMB] |  | GRP, BBS >> NMB |  |  |  | > lOOO | only achieved in two of the five binding site-positive tumours
